Counter-ions that a name gives are not always drawn.
How the values were obtained:
[1] = Chemical stability of the salts (stress at 60° C. and 75% relative humidity, purity by UHPLC); format: physicochemical; settings: for Purity (%) of 1 day stress samples / Difference between reference and 1 day stressed sample: 1 day at 60° C. and 75% relative humidity; for Purity (%) of 1 day stress samples / Purity (%) of 14 day stress samples / Purity (%) of reference: UHPLC; for Difference between reference and 1 day stressed sample / Difference between reference and 14 day stressed sample: purity difference, in %; for Purity (%) of 14 day stress samples / Difference between reference and 14 day stressed sample: 14 days at 60° C. and 75% relative humidity; for Purity (%) of reference: unstressed sample; for Chemical stability (in words): summary statement
Experimental: The purity analyses were performed using Agilent UHPLC equipment with PDA/DAD detector at 210 nm wavelength and reverse phase liquid chromatography column Acquity UPLC HSS T3, 100×3.0 mm, 1.8 μm (Waters). The chromatography was performed with gradient run using acetonitrile and phosphate buffer (pH 3.0) as eluents.
The chemical stability of various salts of compound (I) was determined by stressing the salts for 1 and 14 days at 60° C. and 75% relative humidity. The unstressed sample was used as an reference. The purity of the samples were analyzed using UHPLC, and the purity difference between the stressed and reference was calculated.

[2] = Physical stability of the salts (storage at elevated temperature and relative humidity, re-analysis by XRPD); format: physicochemical; settings: solids exposed for 2 or 3 weeks at 40° C. and 70-80% relative humidity; for Form after stability: XRPD; for Physical stability: re-analyzed by XRPD
Experimental: XRPD measurements were performed with the X-ray powder diffractometer Bruker D8 Advance at room temperature, using a copper filled X-ray tube (40 kV×40 mA) as the X-ray source, CuKα (λ=1.5418 Å), a 0.6 mm divergence slit, 2.5° Soller slits on both the primary and secondary beams and the 1-dimensional LynxEye detector (with aperture angle of 2.91593°). Data collection was done in the range of 3.8-33° 2θ with 0.02° increments, at a scan speed of 0.3°/s.
A stability test was carried out for all crystalline salt forms resulted from the salt screen by exposing the solids for 2 or 3 weeks at 40° C. and 70-80% relative humidity. After exposure, the solids were re-analyzed by XRPD, followed by physical stability assessment.

[3] = biological target: T1, alpha2A receptor (Homo sapiens, UniProt P08913); settings: background, WO 2013/150173; cited from earlier work
T1 sequence (P08913 1-465): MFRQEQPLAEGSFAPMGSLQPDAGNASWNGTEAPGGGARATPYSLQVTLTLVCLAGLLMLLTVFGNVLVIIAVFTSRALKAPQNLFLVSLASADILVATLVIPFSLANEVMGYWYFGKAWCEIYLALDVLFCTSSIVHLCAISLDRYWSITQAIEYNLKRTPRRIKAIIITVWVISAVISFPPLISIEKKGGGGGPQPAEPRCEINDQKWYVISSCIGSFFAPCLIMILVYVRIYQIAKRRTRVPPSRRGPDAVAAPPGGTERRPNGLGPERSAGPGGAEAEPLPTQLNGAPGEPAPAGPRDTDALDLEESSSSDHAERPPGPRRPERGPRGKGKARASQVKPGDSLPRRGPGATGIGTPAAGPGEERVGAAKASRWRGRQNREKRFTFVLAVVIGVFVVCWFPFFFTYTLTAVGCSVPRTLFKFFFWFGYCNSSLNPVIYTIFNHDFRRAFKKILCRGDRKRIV

[4] = listed as 1-Hydroxy-2-naphtoic acid salt
[5] = listed as Napthalene-1,5-disulfonic acid salt

Form after stability [2] | Physical stability [2] | Purity (%) of 1 day stress samples [1] | Difference between reference and 1 day stressed sample [1] | Purity (%) of 14 day stress samples [1] | Difference between reference and 14 day stressed sample [1] | Purity (%) of reference [1] | Chemical stability (in words) [1] | SMILES | further results
Form 1 | Stable | 99.3% | 0.5 | 17.6% | 82.2 | 99.8% |  | COc1cccc2c1CCOC2C1=NCCN1 (centres unmarked) [Glycolic acid salt Form 1, 2-(5-methoxyisochroman-1-yl)-4,5-dihydro-1H-imidazole] | Physical stability ([2]; listed as glycolic acid): remained stable
Form 1 | Stable | 99.8% | 0.0 | 99.8% | 0.0 | 99.8% | good chemical stability | COc1cccc2c1CCOC2C1=NCCN1 (centres unmarked) [Ethane-1,2-disulfonic acid salt Form 1, 2-(5-methoxyisochroman-1-yl)-4,5-dihydro-1H-imidazole] | Physical stability ([2]; listed as ethane-1,2-disulfonic acid): remained stable
Form 1 | Stable |  |  |  |  |  | good chemical stability | COc1cccc2c1CCOC2C1=NCCN1 (centres unmarked) [Naphthalene-1,5-disulfonic acid salt Form 1] [2-(5-methoxyisochroman-1-yl)-4,5-dihydro-1H-imidazole] | Purity (%) of 1 day stress samples [1, 5]: 96.1%; Difference between reference and 1 day stressed sample [1, 5]: 0.2; Purity (%) of 14 day stress samples [1, 5]: 95.7%; Difference between reference and 14 day stressed sample [1, 5]: 0.6; Purity (%) of reference [1, 5]: 96.3%; Physical stability ([2]; listed as naphthalene-1,5-disulfonic acid): remained stable
Form 1 | Stable | 97.9% | −0.2 | 97.9% | −0.2 | 97.7% | good chemical stability | COc1cccc2c1CCOC2C1=NCCN1 (centres unmarked) [Oxalic acid salt Form 1, 2-(5-methoxyisochroman-1-yl)-4,5-dihydro-1H-imidazole] | Physical stability ([2]; listed as oxalic acid): remained stable
Form 1 | Stable | 94.7% | 4.4 | 2.7% | 96.5 | 99.1% |  | COc1cccc2c1CCOC2C1=NCCN1 (centres unmarked) [Adipic acid salt Form 1, 2-(5-methoxyisochroman-1-yl)-4,5-dihydro-1H-imidazole] | Physical stability ([2]; listed as adipic acid): remained stable

Second part, the compound before the results:

SMILES | Form after stability [2] | Physical stability [2] | Purity (%) of 1 day stress samples [1] | Difference between reference and 1 day stressed sample [1] | Purity (%) of 14 day stress samples [1] | Difference between reference and 14 day stressed sample [1] | Purity (%) of reference [1] | Chemical stability (in words) [1] | further results
COc1cccc2c1CCOC2C1=NCCN1 (centres unmarked) [1-Hydroxy-2-napthoic acid salt Form 1, 2-(5-methoxyisochroman-1-yl)-4,5-dihydro-1H-imidazole] | Form 1 | Stable |  |  |  |  |  |  | Purity (%) of 1 day stress samples [1, 4]: 95.4%; Difference between reference and 1 day stressed sample [1, 4]: 3.5; Purity (%) of 14 day stress samples [1, 4]: 0.6%; Difference between reference and 14 day stressed sample [1, 4]: 98.3; Purity (%) of reference [1, 4]: 98.9%; Physical stability ([2]; listed as 1-hydroxy-2-napthoic acid): remained stable
COc1cccc2c1CCOC2C1=NCCN1 (centres unmarked) [Tasipimidine, 2-(5-methoxyisochroman-1-yl)-4,5-dihydro-1H-imidazole] |  |  |  |  |  |  |  |  | Activity on adrenergic alpha2 receptors, especially alpha2A receptor [3]: agonistic activities
COc1cccc2c1CCOC2C1=NCCN1 [L-tartaric acid salt Form 1, 2-(5-methoxyisochroman-1-yl)-4,5-dihydro-1H-imidazole] | Form 1 | Stable | 97.9% | 1.0 | 90.3% | 8.7 | 99.0% |  | Physical stability ([2]; listed as L-tartaric acid (form 1)): remained stable
COc1cccc2c1CCOC2C1=NCCN1 (centres unmarked) [Glutaric acid salt Form 1, 2-(5-methoxyisochroman-1-yl)-4,5-dihydro-1H-imidazole] | Form 1 | Stable | 78.7% | 17.7 | 2.0% | 94.4 | 96.4% |  | Physical stability ([2]; listed as glutaric acid): remained stable

— patent US20250136583A1, “NOVEL SALT FORMS OF ISOCHROMAN-IMIDAZOLE STRUCTURED ALPHA-2A ADRENOCEPTOR AGONIST” (ORION CORPORATION, priority 2022, published 2025)
